Experimental data from patent US12599662B2, “Methods and compositions for treating cancers” (INSERM (INSTITUT NATIONAL DE LA SANTÉ ET DE LA RECHERCHE …, priority 2018, dated 2026).
pIC50, pKi: −log10 of the molar value.

What was measured:
HDACs = conditions: cited from earlier work
LLC1 [1] = test: MTT cell proliferation assay on LLC1; assay type: cell-based; conditions: Mus musculus
Method: (§1) Non-small cell lung cancer (NSCLC) cell line (lewis lung carcinoma, LLC) expressing a particularly aggressive metastatic phenotype was used.
The half maximal inhibitory concentration (IC50) was first determined for each HDACi using an MTT cell proliferation assay. LLC1 was treated with an increasing dose of HDCAi and proliferation was estimated measuring the absorbance after the incorporation by the cell of MMT (3-(4,5-dimethylthiazol-2-yl)-2,5-diphenyl tetrazolium bromide) substrate.

LLC1 [2] = test: MHC class I and II expression on LLC1 by flow cytometry; assay type: cell-based; conditions: for MHC class 2 expression: LLC1, dose corresponding to IC50; for increase of expression of MHC1 on the cell membrane: LLC1, dose corresponding to IC50, 48 hours, compared to untreated cells
Text: FIG. 3: HDACi up-regulates MHC1 in Lung cancer cell lines. […] MHCI and MHCII expression was quantified by flow cytometry analysis measuring the Relative Fluorescence Intensity (RFI).
as §1

4T1 cells [3] = test: Vaccination study with irradiated hESC + adjuvants + VPA on 4T1 mice model; assay type: in vivo; conditions: for Percentage of tumor reduction (% of reduction): day 26, compared to control group receiving only PBS, irradiated hESC vaccine + named adjuvant, VPA 4 mg/ml in drinking water, 4T1 in mammary fat pad
Method: FIG. 1: Vaccination study with hESC combined with Valproic acid (VPA), Poly(A:U), ODN 2395 or Quil-A® adjuvant on 4T1 mice model. Vaccination study with hESC combined with Valproic acid (VPA), Poly(A:U), ODN 2395 or Quil-A® adjuvant on 4T1 mice model. Blab/c mice two boosts of vaccine containing 3 different adjuvants the day of tumor challenge. Tumor growth was assessed until 26 days to follow the tumor size using calipers permitting to measure both the longitudinal (a, mm) and transverse (b, mm) diameters. Tumor volume was calculated and plotted using calculation formula 1/6Π(a+b/2)3 mm3.
The experiment was carried out as followed: Five mice per group received two boosts of vaccine 7 and 14 days with 2×10^6 irradiated hESCs cells that were mixed with 3 different adjuvants: 500 μg of TLR3, 50 μg of TLR9 agonist or 50 μg/ml of Quil-A® Saponin vaccine adjuvant. After 14 days 5×10^4 4T1 cells were injected into the mammary fat pad of the mice and Valproic acid added in the drinking water at the dose of 4 mg/ml. Five mice receiving no treatment were used as control.
Adjuvants used in the vaccine product: Three different adjuvants were tested: • 1/ A TLR3-based adjuvant: Poly(A:U) (ref #tlrl-pau, InvivoGen) Polyadenylic-polyuridylic acid (poly(A:U)) is a synthetic double stranded RNA molecule that specifically signals through TLR3. Poly(A:U) is known to induce the activation of dendritic cells and T lymphocytes, to promote antigen-specific Th1-immune responses and to boost antibody production. […]

4T1 cells [4] = test: Surface marker expression on 4T1 cells by flow cytometry; assay type: cell-based
Method: (§2) FIG. 2: Valproic acid treatment increases MHC I expression in breast tumor cells. Variation in MHC I expression during VPA treatment at 2 mM on 4T1 adherent cells and on 4T1-derived mammospheres.
(§3) 4T1 cells are a triple negative breast cancer cell line that was incubated with increased doses (0.2 and 2 mM) of valproic acid (VPA). After 4 days of treatment, the MHC I surface marker was quantified by flow cytometry analysis.

[5] = test system: mammosphere-derived 4T1 cells; test: MHC I expression on 4T1-derived mammospheres by flow cytometry; assay type: cell-based; conditions: 2 mM VPA
Method: as §2, §3

4T1 cells [6] = test: Transcriptome analysis of VPA-treated 4T1 cells; assay type: cell-based; conditions: 0.5 mM VPA for 10 days versus non-VPA treated cells
Method: To determine the effect of VPA on 4T1 cells, a transcriptome analysis on cells treated with 0.5 mM of VPA for 10 days was performed and compared with that of non-VPA treated cells. These analyses allowed for the identification of the set of genes implicated in TNF-α signaling and in the response of IFN-α and IFN-γ. In addition, the use of the SAM algorithm allowed for the discrimination of 44 immune-related genes between the VPA-treated samples and their control counterparts, which were validated by principal component analysis (p-value=3.3×10^−4). […] These three molecules are known to contribute to the clonal expansion, survival, and development of T cells and regulate CD28 co-stimulation to promote Th1 cell responses. Consequently, this HDACi improves the immune response against the cancer cells.

## 2-pyrrolidinone-n-butyric acid [PBA]
HDACs; major carboxylic acid metabolite of levetiracetam in humans, read-out: Ki for HDAC inhibition
  pKi: 2.65

## Nc1ccccc1NC(=O)c1ccc(CNC(=O)OCc2cccnc2)cc1 [Entinostat]
LLC1 [1]
  pIC50: 5.40 to 5.70
LLC1 [2]
  MHC class 2 expression: not modulated
  increase of expression of MHC1 on the cell membrane: 2 fold

## CC[C@@H](C(N)=O)N1CCCC1=O [Levetiracetam]
LLC1 [1]
  pIC50: 5.40 to 5.70
LLC1 [2]
  MHC class 2 expression: not modulated
  increase of expression of MHC1 on the cell membrane: 2 fold
HDACs
  direct effect on HDACs: no direct effect on HDACs

## CCCC(CCC)C(=O)O [VPA, acid-2-propylpentanoic]
4T1 cells [3]
  Percentage of tumor reduction (% of reduction): 24%
4T1 cells [4]; 0.2 and 2 mM, 4 days of treatment
  MHC I levels: increasing MHC I levels in a dose-dependent manner
4T1 cells [4]; 4T1 cells, 2 mM VPA
  increase in PDL1 expression: 2.1 fold
  increase of MHC I expression (Relative Fluorescence Intensity): 2.1 fold
4T1 cells [4]; 4T1 cells, after VPA treatment
  PDL2 expression: only weakly upregulated
[5]
  increase of MHC I expression (Relative Fluorescence Intensity): 2.7 fold
LLC1 [1]
  pIC50: ~2.70
LLC1 [2]; LLC1, FIG. 3A
  MHC1 overexpression versus non-treated LLC1 cells: 10 folds
LLC1 [2]
  MHC class 2 expression: not modulated
  increase of expression of MHC1 on the cell membrane: 2 fold
4T1 cells [6]
  fold change of CD74, CCL2 and TNFRSF9 expression: greater than 2

## O=C(CCCCCCC(=O)Nc1ccccc1)NO [Vorinostat, N-Hydroxy-N′-phenyloctanediamide]
LLC1 [2]
  MHC class 2 expression: not modulated
  increase of expression of MHC1 on the cell membrane: 2 fold

## Polyadenylic-polyuridylic acid [Poly(A:U)]
4T1 cells [3]
  Percentage of tumor reduction (% of reduction): 54%
4T1 cells [3]; hESC vaccine + adjuvant, versus TLR9 agonist or Quil-A, p<0.001
  reduction of breast tumor volume: highest reduction of breast tumor volume
